Among the data in patent US8906911B2, “Chemokine receptor antagonists” (AbbVie Inc., priority 2012, dated 2014) are Kb, IC50 and Ki values, retold here.

SMILES strings stand for the structures. Like-named read-outs stand apart in the source and are kept apart here.

A word on the IC50: it is the point on the concentration scale where inhibition reaches its midpoint. For orientation: Ki means the dissociation constant of the complex between target and ligand, obtained from inhibition or displacement.

The target in one test is rat CCR2 (Rattus norvegicus (Rat), UniProt O55193). The experiment in a line: Inhibition of native agonist (rat MCP-1)-induced intracellular calcium release, calcium flux assay in CHO cells expressing rat CCR2 and Gα16. The class given is cell-based. As to conditions: read-out: rCCR2 Kb. The source says: (§1) CHO cells expressing human CCR2B were generated as follows. cDNA for human CCR2B (cloned from human blood) was cloned into plasmid pcDNA3.1 (from Invitrogen). The resulting plasmids were separately transfected into CHO cells expressing human Gα16 (from Molecular Devices). […] CHO cells expressing rat CCR2 were generated as follows. cDNA for rat CCR2 (cloned from rat macrophage) was cloned into plasmid pEF-flag (from Chinese Academy of Science). The resulting plasmids were transfected into CHO cells expressing human Gα16 (from […]).
(§2) Inhibition of Native Agonist-Induced Intracellular Calcium Release in Cells Expressing hCCR2B or rCCR2
(§3) Calcium flux assays were performed in CHO cells expressing human CCR2B and Gα16 coupling protein, or rat CCR2 and Gα16 coupling protein. All compounds were dissolved in DMSO and assays run at a final DMSO concentration of 0.25% (v/v). Human MCP-1 was purchased from PeproTech and used at a final assay concentration of 2 nM, while rat MCP-1 was purchased from R&D and used at a final assay concentration of 4 nM. Assays with cells expressing human CCR2B were performed with human MCP-1, while assays with cells expressing rat CCR2 were performed with rat MCP-1.
(§4) Briefly, cells were cultured overnight in a microtiter plate at 8000 per well. The next day, the resultant adherent cells were incubated in assay buffer (20 mM HEPES, pH 7.4, 0.1% bovine serum albumin, and 2.5 mM probenocid in Hank's Buffered Saline Solution) containing Calcium 4 dye (Molecular Probes) at 37° C. for 60 minutes. Calcium flux assays were performed on a FLIPR^Tetra instrument (Molecular Devices) by adding compound to the cells followed by addition of native agonist and measuring the change in fluorescence as a function of time. Maximal and minimal values for fluorescence were determined using native agonist (2 nM MCP-1) for human or rat CCR2, or buffer addition, respectively. Fluorescence values were used to calculate the percent inhibition at a given compound concentration and the data fit to a sigmoidal curve in a semi-log plot to determine IC50 values. The Kb value is calculated as Kb=IC50/(1+[agonist]/EC50), where [agonist] is the concentration of agonist used and EC50 is the agonist potency determined in the previous experiments. Mean Kb values and IC50 of the compounds assayed are reported in Table 2 and Table 3 respectively.

The target of test [1] is T1, human CCR2B (Homo sapiens (Human), UniProt P41597). The experiment in a line: Inhibition of native agonist (human MCP-1)-induced intracellular calcium release, calcium flux assay in CHO cells expressing human CCR2B and Gα16. The test is classed as cell-based. The settings on record: for IC50: read-out: hCCR2B IC50; for Kb: read-out: hCCR2B Kb.
Excerpt: as §1, §2, §3, §4

Test [2] has as its target T1, human CCR2B. Briefly: Inhibition of [125I]-labeled MCP-1 binding to hCCR2B (radioligand binding in CHO cells).
Excerpt: as §1
Inhibition of [^125I]-Labeled MCP-1 Binding to hCCR2B
Radioligand binding assays were performed in CHO cells expressing human CCR2B and Gα16 coupling protein. All compounds were dissolved in DMSO and assays run at a final DMSO concentration of 0.5% (v/v). [^125I]-labeled human MCP-1 was purchased from PerkinElmer. Unlabelled human MCP-1 was purchased from PeproTech.
Compounds were serially diluted in DMSO before diluting into assay buffer (25 mM HEPES, pH 7.4, 5 mM MgCl2, 1 mM CaCl2, 0.5% BSA) with cryo preserved CHO cells expressing human CCR2B and the Gα16 coupling protein (30×10^3/well) and [^125I]-MCP-1 (50 pM). The reaction was incubated at room temperature for 90 minutes before transferring to GF/C filter membrane (PerkinElmer) pre-treated with 0.3% polyethyleneimine for 2 hours at 4° C. The filter membrane was washed six times with ice cold wash buffer (25 mM HEPES, pH 7.4, 5 mM MgCl2, 1 mM CaCl2, 500 mM NaCl, 0.01% (m/v) azide), dried, and sealed in a RLB sample bag (Agilent Technologies) before adding 5.0 mL Microscint 20 to each bag. Membrane was counted on Microbeta counter where background binding was determined by the presence of 100 nM MCP-1 and control total binding was determined by addition of DMSO in place of the test compound. The radioactivity values (cpm) were used to calculate the percent inhibition at a given compound concentration and the data fit to a sigmoidal curve in a semi-log plot to determine IC50 values. The corresponding Ki value is calculated as follows:
Ki=IC50/(1+[radioligand]/Kd), where [radioligand] is the concentration of the label and Kd (dissociation constant) is determined in saturation experiment with different concentrations of labeled MCP-1.

Setting [3] is: mean Ki, [125I]-MCP-1 50 pM, CHO cells expressing human CCR2B and Gα16.

T1 sequence (P41597 other isoform, or with tags, fused parts or gaps): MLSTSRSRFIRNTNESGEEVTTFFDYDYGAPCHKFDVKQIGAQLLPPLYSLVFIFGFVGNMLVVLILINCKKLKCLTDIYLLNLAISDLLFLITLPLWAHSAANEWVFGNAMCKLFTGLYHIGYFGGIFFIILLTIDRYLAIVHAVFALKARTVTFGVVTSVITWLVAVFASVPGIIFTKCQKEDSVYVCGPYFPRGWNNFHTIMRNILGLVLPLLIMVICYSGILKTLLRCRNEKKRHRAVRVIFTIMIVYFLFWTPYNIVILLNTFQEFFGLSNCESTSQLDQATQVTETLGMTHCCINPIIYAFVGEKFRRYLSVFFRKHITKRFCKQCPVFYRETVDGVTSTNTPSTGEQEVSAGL
Sequence of rat CCR2 (O55193 whole entry): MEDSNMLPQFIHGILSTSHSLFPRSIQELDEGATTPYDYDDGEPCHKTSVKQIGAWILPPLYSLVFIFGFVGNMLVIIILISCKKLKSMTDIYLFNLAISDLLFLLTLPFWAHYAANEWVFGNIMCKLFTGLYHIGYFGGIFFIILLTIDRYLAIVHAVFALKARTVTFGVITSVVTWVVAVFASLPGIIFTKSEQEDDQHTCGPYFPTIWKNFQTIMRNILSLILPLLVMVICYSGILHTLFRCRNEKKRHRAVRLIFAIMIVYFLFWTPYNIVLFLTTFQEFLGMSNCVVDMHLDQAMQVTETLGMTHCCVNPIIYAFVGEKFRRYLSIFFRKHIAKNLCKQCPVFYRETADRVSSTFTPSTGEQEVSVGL

Take `CO[C@@H]1COCC[C@@H]1N[C@@H]1C[C@H]2CCC[C@@]2(C(=O)N2C[C@@H]3C[C@H]2CN3c2ccc(F)c(Cl)c2)C1` [Example 20, 1,5-anhydro-3-{[(2R,3aR,6aR)-3a-{[(1S,4S)-5-(3-chloro-4-fluorophenyl)-2,5-diazabicyclo[2.2.1]hept-2-yl]carbonyl}octahydropentalen-2-yl]amino}-2,3-dideoxy-4-O-methyl-D-erythro-pentitol]: the results for the Kb on rat CCR2 and on human CCR2B [1] were 0.018 µM and 0.045 µM, respectively. Further, the IC50 on human CCR2B [1] (calcium flux, human MCP-1 2 nM) was determined as 0.182 µM. The molecule also returned a Ki on human CCR2B [2] (setting [3]) of 0.112 µM.
Regarding `CO[C@@H]1COCC[C@@H]1N[C@@H]1C[C@H]2CCC[C@@]2(C(=O)N2C[C@@H]3C[C@H]2CN3C(=O)OC(C)(C)C)C1` [Example 60, 1,5-anhydro-3-{[(2R,3aR,6aR)-3a-{[(1S,4S)-5-(tert-butoxycarbonyl)-2,5-diazabicyclo[2.2.1]hept-2-yl]carbonyl}octahydropentalen-2-yl]amino}-2,3-dideoxy-4-O-methyl-D-erythro-pentitol], the Kb on rat CCR2 stood at 0.019 µM. Besides, at human CCR2B [1], the IC50 stood at 0.328 µM and the Kb came to 0.081 µM. Besides, the Ki at human CCR2B [2] (setting [3]) came to 0.552 µM.
With `CO[C@@H]1COCC[C@@H]1N[C@@H]1C[C@H]2CCC[C@@]2(C(=O)N2C[C@@H]3C[C@H]2CN3c2cc(C(F)(F)F)ccn2)C1` [Example 2, 1,5-anhydro-2,3-dideoxy-4-O-methyl-3-{[(2R,3aR,6aR)-3a-({(1S,4S)-5-[4-(trifluoromethyl)pyridin-2-yl]-2,5-diazabicyclo[2.2.1]hept-2-yl}carbonyl)octahydropentalen-2-yl]amino}-D-erythro-pentitol], the Kb amounted to 0.012 µM on rat CCR2 and 0.019 µM at human CCR2B [1]. For the same molecule, the IC50 at human CCR2B [1] (calcium flux, human MCP-1 2 nM) was found to be 0.0767 µM. This molecule registered a Ki on human CCR2B [2] (setting [3]) of 0.06 µM.
On to `CO[C@@H]1COCC[C@@H]1N[C@@H]1C[C@H]2CCC[C@@]2(C(=O)N2C[C@@H]3C[C@H]2CN3c2ccc(C#N)c(C(F)(F)F)c2)C1` (racemic) [Example 39, 1,5-anhydro-3-{[(2R,3aR,6aR)-3a-({(1S,4S)-5-[4-cyano-3-(trifluoromethyl)phenyl]-2,5-diazabicyclo[2.2.1]hept-2-yl}carbonyl)octahydropentalen-2-yl]amino}-2,3-dideoxy-4-O-methyl-D-erythro-pentitol], for which the Kb worked out at 0.003 µM at rat CCR2 and 0.014 µM on human CCR2B [1]. In addition, the IC50 at human CCR2B [1] (calcium flux, human MCP-1 2 nM) stood at 0.0553 µM. The Ki at human CCR2B [2] amounted to 0.066 µM.
As for `O=C(N1C[C@@H]2C[C@H]1CN2c1cc(C(F)(F)F)ccn1)[C@@]12CCC[C@@H]1C[C@@H](N1CCC(c3ccccc3)CC1)C2` [Example 49, [(2R,3aR,6aR)-2-(4-phenylpiperidin-1-yl)hexahydropentalen-3a(1H)-yl]{(1S,4S)-5-[4-(trifluoromethyl)pyridin-2-yl]-2,5-diazabicyclo[2.2.1]hept-2-yl}methanone], the Kb at rat CCR2 worked out at 0.023 µM. Moreover, at human CCR2B [1], the IC50 was determined as 0.037 µM and the Kb is 0.009 µM. Further, affinity at human CCR2B [2] (setting [3]) was put at a Ki of 0.015 µM.
`CC[C@@H]1COCC[C@H]1N[C@@H]1C[C@H]2CCC[C@@]2(C(=O)N2C[C@@H]3C[C@H]2CN3c2cc(C(F)(F)F)ccn2)C1` [Example 66, [(2R,3aR,6aR)-2-{[(3S,4R)-3-ethyltetrahydro-2H-pyran-4-yl]amino}hexahydropentalen-3a(1H)-yl]{(1S,4S)-5-[4-(trifluoromethyl)pyridin-2-yl]-2,5-diazabicyclo[2.2.1]hept-2-yl}methanone]: the values for the Kb on rat CCR2 and on human CCR2B [1] were 0.008 µM and 0.011 µM, respectively. Also, at human CCR2B [1] (calcium flux, human MCP-1 2 nM), the IC50 was 0.0458 µM. The molecule further registered a Ki at human CCR2B [2] (setting [3]) of 0.013 µM.
Regarding `CO[C@@H]1COCC[C@@H]1N[C@@H]1C[C@H]2CCC[C@@]2(C(=O)N2C[C@@H]3C[C@H]2CN3c2cccc(C(F)(F)F)n2)C1` [Example 22, 1,5-anhydro-2,3-dideoxy-4-O-methyl-3-{[(2R,3aR,6aR)-3a-({(1S,4S)-5-[6-(trifluoromethyl)pyridin-2-yl]-2,5-diazabicyclo[2.2.1]hept-2-yl}carbonyl)octahydropentalen-2-yl]amino}-D-erythro-pentitol], the Kb came to 0.012 µM on rat CCR2 and 0.038 µM at human CCR2B [1]. Besides, the IC50 on human CCR2B [1] (calcium flux, human MCP-1 2 nM) came to 0.153 µM. The molecule further yielded a Ki at human CCR2B [2] (setting [3]) of 0.12 µM.
With `CO[C@@H]1COCC[C@@H]1N[C@@H]1C[C@H]2CCC[C@@]2(C(=O)N2C[C@@H]3C[C@H]2CN3c2ccc(F)c(C(F)(F)F)c2)C1` [Example 15, 1,5-anhydro-2,3-dideoxy-3-{[(2R,3aR,6aR)-3a-({(1S,4S)-5-[4-fluoro-3-(trifluoromethyl)phenyl]-2,5-diazabicyclo[2.2.1]hept-2-yl}carbonyl)octahydropentalen-2-yl]amino}-4-O-methyl-D-erythro-pentitol], the Kb on rat CCR2 stood at 0.003 µM. For the same molecule, on human CCR2B [1], the IC50 was found to be 0.0347 µM and the Kb worked out at 0.009 µM. In addition, the Ki at human CCR2B [2] (setting [3]) worked out at 0.029 µM.
For `CO[C@@H]1COCC[C@@H]1N[C@@H]1C[C@H]2CCC[C@@]2(C(=O)N2C[C@@H]3C[C@H]2CN3c2cc(C(F)(F)F)ccc2C)C1` [Example 16, 1,5-anhydro-2,3-dideoxy-4-O-methyl-3-{[(2R,3aR,6aR)-3a-({(1S,4S)-5-[2-methyl-5-(trifluoromethyl)phenyl]-2,5-diazabicyclo[2.2.1]hept-2-yl}carbonyl)octahydropentalen-2-yl]amino}-D-erythro-pentitol], in that order: 0.007 µM, 0.106 µM, 0.026 µM and 0.199 µM.
As to `CO[C@@H]1COCC[C@@H]1N[C@@H]1C[C@H]2CCC[C@@]2(C(=O)N2C[C@@H]3C[C@H]2CN3c2ncc(C(F)(F)F)cc2Cl)C1` [Example 32, 1,5-anhydro-3-{[(2R,3aR,6aR)-3a-({(1S,4S)-5-[3-chloro-5-(trifluoromethyl)pyridin-2-yl]-2,5-diazabicyclo[2.2.1]hept-2-yl}carbonyl)octahydropentalen-2-yl]amino}-2,3-dideoxy-4-O-methyl-D-erythro-pentitol], the Kb on rat CCR2 was determined as 0.044 µM; at human CCR2B [1], 0.077 µM. Besides, at human CCR2B [1] (calcium flux, human MCP-1 2 nM), the IC50 came to 0.314 µM. The molecule further returned a Ki on human CCR2B [2] (setting [3]) of 1.06 µM.
For `CO[C@@H]1COCC[C@@H]1N(C)[C@@H]1C[C@H]2CCC[C@@]2(C(=O)N2C[C@@H]3C[C@H]2CN3c2cc(C(F)(F)F)ccc2C#N)C1` [Example 53, 1,5-anhydro-3-{[(2R,3aR,6aR)-3a-({(1S,4S)-5-[2-cyano-5-(trifluoromethyl)phenyl]-2,5-diazabicyclo[2.2.1]hept-2-yl}carbonyl)octahydropentalen-2-yl](methyl)amino}-2,3-dideoxy-4-O-methyl-D-erythro-pentitol], on rat CCR2, the Kb was found to be 0.026 µM. For the same molecule, on human CCR2B [1], the IC50 was 0.0479 µM and the Kb came to 0.012 µM. The molecule further came in with a Ki at human CCR2B [2] (setting [3]) of 0.016 µM.
`CO[C@@H]1COCC[C@@H]1N[C@@H]1C[C@H]2CCC[C@@]2(C(=O)N2C[C@@H]3C[C@H]2CN3c2ccnc(C(F)(F)F)n2)C1` [Example 27, 1,5-anhydro-2,3-dideoxy-4-O-methyl-3-{[(2R,3aR,6aR)-3a-({(1S,4S)-5-[2-(trifluoromethyl)pyrimidin-4-yl]-2,5-diazabicyclo[2.2.1]hept-2-yl}carbonyl)octahydropentalen-2-yl]amino}-D-erythro-pentitol]: the values for the Kb on rat CCR2 and at human CCR2B [1] were 0.019 µM and 0.096 µM, respectively. The IC50 at human CCR2B [1] (calcium flux, human MCP-1 2 nM) turned out to be 0.391 µM. Besides, the affinity at human CCR2B [2] (setting [3]) corresponds to a Ki of 0.444 µM.
